# In patent US11932870B2, “Compositions and methods for immune cell modulation in adoptive immunotherapies” (Fate Therapeutics, Inc., priority 2016, dated 2024):
# Counter-ions that a name gives are not always drawn.
# What was measured:
# viable CD4+ population = experiment: T cell compound screen: CCR7+CD62L+ cells in the viable CD4+ population (flow cytometry); type: cell-based, human; conditions: 10 μM, about 6 days; for CD4 Hit: anti-CD3/anti-CD28 beads, hit = Z-score > +2 for percent or absolute number CCR7+CD62L+ in CD4+; for number or ratio of cells co-expressing CCR7 and CD62L: viable CD4+ population
# Text: (§1) In Vitro T Cell Culture. Fresh leukopaks (AllCells, Alameda, CA) were obtained from healthy donors, from which T cells were negatively selected using the EasySep Human T cell Enrichment Kit (Stem Cell Technologies, Vancouver, Canada). The freshly isolated T cells were aliquoted and cryopreserved. On the day the screens were initiated, T cells were thawed and washed into X-Vivo 15 with 5% human AB serum, IL-2, pen/strep, and additional supplements. Cells were dispensed into flat-bottom 384-well plates at 5×10^5 cells/ml with anti-CD3/anti-CD28 beads. Individual compounds were added at a final concentration of 10 μM to each well from column 3 to column 22 of each plate. Positive and negative controls were added to additional wells. Cells were incubated for about 6 days at 37 degrees with 5% CO2.
# (§2) Flow Cytometry. On Day 6 of culture, cells were stained with a fixable viability marker and fluorophore-conjugated antibodies: CD3, CD4, CD8, CD45RA, CD45RO, CD62L, CCR7, CD27, and CD122 (BD Biosciences, San Jose, CA; and BioLegend, San Diego, CA). Fluorescent absolute counting beads (Spherotech, Lake Forest, IL) were added just prior to acquisition. Data acquisition was performed on a BD Fortessa X-20 (BD Biosciences) and data were analyzed using Treestar software (FlowJo, Ashland, OR) and Spotfire (Tibco, Boston, MA).
# (§3) These cells are characterized by expression of CCR7 and CD62L. Therefore, cells co-expressing both of these identifying markers were evaluated. Within the viable CD4+ population and viable CD8+ population, the percent of cells co-expressing CCR7 and CD62L was determined. The expression of either CD62L or CCR7 on T cells, as indicative of the desired T cell subsets, have been described as having favorable functional characteristics for CAR-T cell therapy, and potentially other adoptive T cell therapies.
# (§4) The number of events in each of these gates relative to the number of absolute counting beads in each sample was calculated, defining a measure of the absolute number of naïve, stem cell memory, or central memory T cells within the CD4+ and/or CD8+ populations. A z-Score relative to the screened compound samples within each 384-well plate was calculated for each of these four values: 1) percent CCR7+CD62L+in CD4+, 2) percent CCR7+CD62L+in CD8+, 3) absolute relative number of CCR7+CD62L+in CD4+, and 4) absolute number of CCR7+CD62L+in CD8+(FIGS. 1A and 1i). Z-scores were also calculated for the percent viability of all cells within each sample and the relative absolute number of cells within each sample. A “Z-Score” is a statistical measurement of a score's relationship to the mean in a group of scores. AZ-score of 0 means the score is the same as the mean. AZ-score can also be positive or negative, indicating whether it is above or below the mean and by how many standard deviations.
# viable CD8+ population = experiment: T cell compound screen: CCR7+CD62L+ cells in the viable CD8+ population (flow cytometry); type: cell-based, human; conditions: 10 μM, about 6 days; for CD8 Hit: anti-CD3/anti-CD28 beads, hit = Z-score > +2 for percent or absolute number CCR7+CD62L+ in CD8+; for number or ratio of cells co-expressing CCR7 and CD62L: viable CD8+ population
# Text: as §1, §2, §3, §4
Compound,CD4 Hit (viable CD4+ population),number or ratio of cells co-expressing CCR7 and CD62L (viable CD4+ population),CD8 Hit (viable CD8+ population),number or ratio of cells co-expressing CCR7 and CD62L (viable CD8+ population)
"CCC(CO)Nc1nc(NCc2ccccc2)c2ncn(C(C)C)c2n1 (stereo in doubt) [Roscovitine, (S)-Isomer]",CD4,increased,–,–
"CCCc1c(-c2ccc(O)cc2)nn(-c2ccc(O)cc2)c1-c1ccc(O)cc1 [1,3,5-tris(4-hydroxyphenyl)-4-propyl-1H-pyrazole]",CD4,increased,–,–
"N.S=C(S)N1CCCC1 [1-Pyrrolidinecarbodithioic acid, ammonium salt]",CD4,increased,–,–
"CN(C)[C@@H]1C(=O)C(C(N)=O)=C(O)[C@@]2(O)C(=O)C3=C(O)c4c(O)ccc(Cl)c4[C@@H](O)[C@H]3C[C@@H]12.Cl [2-Naphthacenecarboxamide, 7-chloro-4-(dimethylamino)-1,4,4a,5,5a,6,11,12a-octahy]",–,–,CD8,increased
Nc1ncn([C@@H]2O[C@H](CO)[C@@H](O)[C@H]2O)c(=O)n1 [5-Azacytidine],CD4,increased,CD8,increased
Sc1ncnc2nc[nH]c12 [6-Mercaptopurine],CD4,increased,CD8,increased
"Oc1c(Cl)cc(Cl)c2cccnc12 [8-Quinolinol, 5,7-dichloro-]",CD4,increased,CD8,increased
"Oc1c(I)cc(Cl)c2cccnc12 [8-Quinolinol, 5-chloro-7-iodo-]",CD4,increased,CD8,increased
CC[n+]1c(/C=C/C=C2/N(C)c3ccccc3C2(C)C)sc2ccccc21.[I-] [AC-93253 iodide],CD4,increased,CD8,increased
COc1ccc(-c2cc3nccn3c(Nc3ncccc3C(N)=O)n2)cc1OC [BAY 61-3606],CD4,increased,–,–
COc1cc2nc(N3CCCN(C)CC3)nc(NC3CCN(Cc4ccccc4)CC3)c2cc1OC [BIX01294],CD4,increased,–,–
"O=C(O)CN(CCN(CC(=O)O)CC(=O)O)CCN(CC(=O)O)CC(=O)O [Diethylenetriaminepentaacetic acid, pentasodium]",CD4,increased,CD8,increased
CC[N+](C)(C)c1cccc(O)c1 [Edrophonium chloride],–,–,CD8,increased
C[C@]12CC[C@@H]3c4ccc(O)cc4C[C@@H](CCCCCCCCC[S+]([O-])CCCC(F)(F)C(F)(F)F)[C@H]3[C@@H]1CC[C@@H]2O (stereo partly drawn) [Fulvestrant],–,–,CD8,increased
CC(C)C1CCC2(CO2)C2C(=O)OCC(C(=O)O)=CC12 (stereo not drawn) [Heptelidic acid],CD4,increased,CD8,increased
O=C(N/N=C/c1ccc([N+](=O)[O-])o1)c1ccc(O)cc1 [Nifuroxazide],–,–,CD8,increased
C=CCc1cccc(/C=N/NC(=O)CN2CCN(Cc3ccccc3)CC2)c1O [PAC-1],CD4,increased,–,–
Oc1cccc(-c2nc(N3CCOCC3)c3oc4ncccc4c3n2)c1 [PI-103],CD4,increased,CD8,increased
C=CC1=C(C)c2cc3[nH]c(cc4nc(cc5[nH]c(cc1n2)c(C)c5CCC(=O)O)C(CCC(=O)O)=C4C)c(C)c3C=C [Protoporphyrin IX disodium],CD4,increased,–,–
CN(C)c1ccc(C=C2C(=O)Nc3ccccc32)cc1 [SU 4312],–,–,CD8,increased
CN[C@H]1CC[C@@H](c2ccc(Cl)c(Cl)c2)c2ccccc21 [Sertraline],CD4,–,CD8,–
CCCc1nc2c(C)cc(-c3nc4ccccc4n3C)cc2n1Cc1ccc(-c2ccccc2C(=O)O)cc1 [Telmisartan],CD4,increased,–,–
CC(C)(C)c1ccc(C(O)CCCN2CCC(C(O)(c3ccccc3)c3ccccc3)CC2)cc1 (stereo not drawn) [Terfenadine],CD4,increased,–,–
C/C=C(/C)C(=O)O[C@H]1C(C)=C2[C@H]([C@@H]1OC(=O)CCCCCCC)[C@@](C)(OC(C)=O)C[C@H](OC(=O)CCC)[C@@]1(O)[C@H]2OC(=O)[C@@]1(C)O [Thapsigargin],–,–,CD8,increased
O=C(O)Cc1cc(I)c(Oc2ccc(O)c(I)c2)c(I)c1 [Tiratricol],CD4,increased,CD8,increased
NC1CCN(c2nc3c(cc2F)c(=O)c(C(=O)O)cn3-c2ccc(F)cc2F)C1 (stereo not drawn) [Tosufloxacin hydrochloride],CD4,increased,–,–
N#CC(=C(/N)Sc1ccccc1N)/C(C#N)=C(\N)Sc1ccccc1N [U0126],CD4,increased,–,–
